Test results taken from US9464106B2, “Oligonucleotides useful for detecting and analyzing nucleic acids of interest” (Exiqon A/S, priority 2002, dated 2016).
Values belong to the molecule of their own block, whether it stands above or below them. l = locked nucleic acid (LNA); {Biotin} = biotin label; d = 2'-deoxy (DNA)

How the values were obtained:
[1] = tested on: DNA target 3′-d(CACTYTACG); test: Thermal denaturation of ON1-ON11 towards DNA complements; format: binding; conditions: 1.5 μM of the two strands
[2] = tested on: C. elegans genes relevant for general stress response and metabolism of toxic compounds
[3] = tested on: human chromosome 21 alphaRI (680) locus alpha-satellite repeat; test: FISH with chromosome-21 specific centromere LNA probes; format: binding; conditions: 40 min. hybridization at RT
human telomere repeat = test: FISH with human telomere repeat LNA probe; format: binding; conditions: 5 pmoles probe, 30 min. hybridization at 37° C.
Procedure: Chromosome preparations were made by standard methods from peripheral lymphocyte cultures of two normal males. Slides were prepared 1-6 days prior to an experiment and treated with RNAse (10 μg/μl) at 37° C. for one hour before hybridization. […] FISH was carried out as described previously (Silahtaroglu et al, 1998) with the following modifications. […] Slides were washed after 30 min. hybridization at 37° C. Post washing steps included a 2×5 min 0.1×SSC at 60° C.; 5 min 2×SSC at 37° C.; 3 min 4×SSC/0.05% Tween20 at 37° C. and 5 min PBS. […] The whole procedure was carried out in the dark. The signals were visualized using a Leica DMRB epifluorescence microscope equipped with a SenSys charge-coupled device camera (Photometrics, Tucson, Ariz.), and IPLAB Spectrum Quips FISH software (Applied Imaging international Ltd., Newcastle, UK).

[4] = C. elegans, incubation 24 hours

Molecule: 5′-d[2′-OMe(GTGATATGC)] [ON5, reference compound]
Tm, Y = A ([1]; 10 mM sodium phosphate, 100 mM sodium chloride, 0.1 mM EDTA, pH 7.0): 35 °C
Tm, Y = C ([1]; medium salt buffer): 14 °C
Tm, Y = G ([1]; medium salt buffer): 19 °C
Tm, Y = T ([1]; medium salt buffer): 21 °C

Molecule: Cc1c(OCC(F)(F)F)ccnc1C[S+]([O-])c1nc2ccccc2[nH]1 (centres unmarked) [Lansoprazole]
Log2 transformed fold of change, HSP90 (C47E8.5) [2, 4]: −1.17
Log2 transformed fold of change, Ubiquitin (M7.1) [2, 4]: −0.12
Log2 transformed fold of change, CYP37A (F01D5.9) ([2]; in vivo): 0.98

melting point: 227.5 to 229 °C (dec.)
Molecule: Nc1ncc2ncn([C@@H]3O[C@@]4(CO)CO[C@@H]3[C@@H]4O)c2n1 [compound 23, (1S,3R,4R,7S)-3-(2-aminopurin-9-yl)-7-hydroxy-1-hydroxymethyl-2,5-dioxabicyclo[2.2.1]heptane]

Molecule: TgTgTaCcCaGcCaAaGgAgTtGa (TGTGTACCCAGCCAAAGGAGTTGA; sugars from the 5' end ldldldldldldldldldldldld, 5' {Biotin}, backbone and methylation of C not given here) [5′ biotin-labelled 24-mer FISH probe]
FISH signals on chromosomes [3]: prominent signals both on chromosomes 13 and 21

Molecule: aCcCaGcCaAaGgAg (ACCCAGCCAAAGGAG; sugars from the 5' end dldldldldldldld, 5' {Biotin}, backbone and methylation of C not given here) [5′ biotin-labelled 15-mer FISH probe]
FISH signals on chromosomes [3]: prominent signals on chromosome 21

Molecule: ttagggttagggttagggttaggg [human telomere repeat specific LNA oligonucleotide probe] (TTAGGGTTAGGGTTAGGGTTAGGG)
FISH signals on telomeres (human telomere repeat): prominent signals on the telomeres
